In patent US20190185518A9, “WARHEAD-CONTAINING PEPTIDOMIMETIC MACROCYCLES AS MODULATORS OF BFL-1” (AILERON Therapeutics, Inc., priority 2017, published 2019) one finds Ki data, which are given here for 13 molecules.

Positions of bridges follow the written chain, without caps; N, C: chain ends. Non-standard residues stand in square brackets, D forms with d. Residues, ends and D or L forms follow the SMILES beside them. 2Nal = N[C@@H](Cc1ccc2ccccc2c1)C(=O)O; R8 = C=CCCCCCC[C@@](C)(N)C(=O)O; S5 = C=CCCC[C@](C)(N)C(=O)O

Mcl-1, sequence (Q07820 whole entry, species assumed): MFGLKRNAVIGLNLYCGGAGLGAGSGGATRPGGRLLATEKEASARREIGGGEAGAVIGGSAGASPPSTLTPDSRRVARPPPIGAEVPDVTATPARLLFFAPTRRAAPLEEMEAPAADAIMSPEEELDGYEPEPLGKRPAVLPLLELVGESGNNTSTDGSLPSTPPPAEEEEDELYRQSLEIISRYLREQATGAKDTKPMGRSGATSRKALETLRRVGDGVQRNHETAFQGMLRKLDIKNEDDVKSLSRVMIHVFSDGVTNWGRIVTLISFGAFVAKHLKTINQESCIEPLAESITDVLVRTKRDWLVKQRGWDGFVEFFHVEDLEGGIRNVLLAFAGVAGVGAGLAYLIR

The assay has as its target Mcl-1 (Homo sapiens, UniProt Q07820). Description: Ki determination for Mcl-1 (BCL-2 family binding spectrum). Particulars: read-out: Ki MCL-1. An excerpt:
To assess the binding and affinity of compounds that antagonize the interaction between a peptide and an acceptor protein, a fluorescence polarization assay (FPA) utilizing a fluoresceinated peptidomimetic macrocycle derived from a peptidomimetic precursor sequence is used, for example. The FPA technique measures the molecular orientation and mobility using polarized light and fluorescent tracer. […] A compound that antagonizes the interaction between the fluoresceinated peptidomimetic macrocycle and an acceptor protein will be detected in a competitive binding FPA experiment.
Antagonist binding activity is measured, for example, by fluorescence polarization on a luminescence spectrophotometer (e.g. Perkin-Elmer LS50B). Kd values may be determined by nonlinear regression analysis using, for example, Graphpad Prism software (GraphPad Software, Inc., San Diego, Calif.).
For the molecule `CC[C@H](C)[C@H](NC(=O)[C@H](Cc1c[nH]c2ccccc12)NC(=O)[C@H](CCC(=O)O)NC(C)=O)C(=O)N[C@@H](C)C(=O)N[C@@H](C)C(=O)N[C@@H](C)C(=O)N[C@@H](CC(C)C)C(=O)N[C@@H](CCCNC(=N)N)C(=O)N[C@]1(C)CCCCCCC=CCCC[C@@](C)(C(=O)N[C@@H](Cc2ccc(O)cc2)C(=O)N[C@@H](Cc2ccc(O)cc2)C(=O)N[C@@H](C)C(N)=O)NC(=O)[C@H](CC(N)=O)NC(=O)[C@H](Cc2ccccc2)NC(=O)[C@H](C)NC(=O)[C@H](CC(=O)O)NC(=O)CNC(=O)[C@H]([C@@H](C)CC)NC1=O` [compound 1716] (Ac-EWIAAALR[R8]IGDAFN[S5]YYA-NH2; staple 9-16), the inhibition constant Ki was determined as 2.2 nM.

Turning to `CC[C@H](C)[C@H](NC(=O)[C@H](Cc1c[nH]c2ccccc12)NC(=O)[C@H](CCCCN)NC(C)=O)C(=O)N[C@@H](C)C(=O)N[C@@H](C)C(=O)N[C@@H](C)C(=O)N[C@@H](CC(C)C)C(=O)N[C@@H](CCCNC(=N)N)C(=O)N[C@]1(C)CCCCCCC=CCCC[C@@](C)(C(=O)N[C@@H](Cc2ccc(O)cc2)C(=O)N[C@@H](Cc2ccc(O)cc2)C(=O)N[C@@H](C)C(N)=O)NC(=O)[C@H](CC(N)=O)NC(=O)[C@H](Cc2ccccc2)NC(=O)[C@H](C)NC(=O)[C@H](CC(=O)O)NC(=O)CNC(=O)[C@H]([C@@H](C)CC)NC1=O` [compound 1718] (Ac-KWIAAALR[R8]IGDAFN[S5]YYA-NH2; staple 9-16), the inhibition constant Ki is 3.9 nM.

With `CC[C@H](C)[C@H](NC(=O)[C@H](Cc1c[nH]c2ccccc12)NC(=O)[C@H](Cc1c[nH]cn1)NC(C)=O)C(=O)N[C@@H](C)C(=O)N[C@@H](C)C(=O)N[C@@H](C)C(=O)N[C@@H](CC(C)C)C(=O)N[C@@H](CCCNC(=N)N)C(=O)N[C@]1(C)CCCCCCC=CCCC[C@@](C)(C(=O)N[C@@H](Cc2ccc(O)cc2)C(=O)N[C@@H](Cc2ccc(O)cc2)C(=O)N[C@@H](C)C(N)=O)NC(=O)[C@H](CC(N)=O)NC(=O)[C@H](Cc2ccccc2)NC(=O)[C@H](C)NC(=O)[C@H](CC(=O)O)NC(=O)CNC(=O)[C@H]([C@@H](C)CC)NC1=O` [compound 1719] (Ac-HWIAAALR[R8]IGDAFN[S5]YYA-NH2; staple 9-16), the Ki worked out at 3.6 nM.

Consider `CC[C@H](C)[C@H](NC(=O)[C@H](Cc1c[nH]c2ccccc12)NC(=O)[C@H](CO)NC(C)=O)C(=O)N[C@@H](C)C(=O)N[C@@H](C)C(=O)N[C@@H](C)C(=O)N[C@@H](CC(C)C)C(=O)N[C@@H](CCCNC(=N)N)C(=O)N[C@]1(C)CCCCCCC=CCCC[C@@](C)(C(=O)N[C@@H](Cc2ccc(O)cc2)C(=O)N[C@@H](Cc2ccc(O)cc2)C(=O)N[C@@H](C)C(N)=O)NC(=O)[C@H](CC(N)=O)NC(=O)[C@H](Cc2ccccc2)NC(=O)[C@H](C)NC(=O)[C@H](CC(=O)O)NC(=O)CNC(=O)[C@H]([C@@H](C)CC)NC1=O` [compound 1720] (Ac-SWIAAALR[R8]IGDAFN[S5]YYA-NH2; staple 9-16), for which the Ki came out at 3.9 nM.

On to `CC[C@H](C)[C@H](NC(=O)[C@H](Cc1c[nH]c2ccccc12)NC(=O)[C@H](CCC(N)=O)NC(C)=O)C(=O)N[C@@H](C)C(=O)N[C@@H](C)C(=O)N[C@@H](C)C(=O)N[C@@H](CC(C)C)C(=O)N[C@@H](CCCNC(=N)N)C(=O)N[C@]1(C)CCCCCCC=CCCC[C@@](C)(C(=O)N[C@@H](Cc2ccc(O)cc2)C(=O)N[C@@H](Cc2ccc(O)cc2)C(=O)N[C@@H](C)C(N)=O)NC(=O)[C@H](CC(N)=O)NC(=O)[C@H](Cc2ccccc2)NC(=O)[C@H](C)NC(=O)[C@H](CC(=O)O)NC(=O)CNC(=O)[C@H]([C@@H](C)CC)NC1=O` [compound 1721] (Ac-QWIAAALR[R8]IGDAFN[S5]YYA-NH2; staple 9-16), for which the inhibitory constant (Ki) was 4.8 nM.

Take `CC[C@H](C)[C@H](NC(=O)[C@H](Cc1c[nH]c2ccccc12)NC(=O)[C@H](C)NC(C)=O)C(=O)N[C@@H](C)C(=O)N[C@@H](C)C(=O)N[C@@H](C)C(=O)N[C@@H](CC(C)C)C(=O)N[C@@H](CCCNC(=N)N)C(=O)N[C@]1(C)CCCCCCC=CCCC[C@@](C)(C(=O)N[C@@H](Cc2ccc(O)cc2)C(=O)N[C@@H](Cc2ccc(O)cc2)C(=O)N[C@@H](C)C(N)=O)NC(=O)[C@H](CC(N)=O)NC(=O)[C@H](Cc2ccccc2)NC(=O)[C@H](C)NC(=O)[C@H](CC(=O)O)NC(=O)CNC(=O)[C@H]([C@@H](C)CC)NC1=O` [compound 1722] (Ac-AWIAAALR[R8]IGDAFN[S5]YYA-NH2; staple 9-16): the Ki turned out to be 3.8 nM.

As for `CC[C@H](C)[C@H](NC(C)=O)C(=O)N[C@@H](Cc1c[nH]cn1)C(=O)N[C@H](C(=O)N[C@@H](C)C(=O)N[C@@H](C)C(=O)N[C@@H](C)C(=O)N[C@@H](CC(C)C)C(=O)N[C@@H](CCCNC(=N)N)C(=O)N[C@]1(C)CCCCCCC=CCCC[C@@](C)(C(=O)N[C@@H](Cc2ccc(O)cc2)C(=O)N[C@@H](Cc2ccc(O)cc2)C(=O)N[C@@H](C)C(N)=O)NC(=O)[C@H](CC(N)=O)NC(=O)[C@H](Cc2ccccc2)NC(=O)[C@H](C)NC(=O)[C@H](CC(=O)O)NC(=O)CNC(=O)[C@H]([C@@H](C)CC)NC1=O)[C@@H](C)CC` [compound 1727] (Ac-IHIAAALR[R8]IGDAFN[S5]YYA-NH2; staple 9-16), the Ki was 6.6 nM.

With `CC[C@H](C)[C@H](NC(C)=O)C(=O)N[C@@H](CC(C)C)C(=O)N[C@H](C(=O)N[C@@H](C)C(=O)N[C@@H](C)C(=O)N[C@@H](C)C(=O)N[C@@H](CC(C)C)C(=O)N[C@@H](CCCNC(=N)N)C(=O)N[C@]1(C)CCCCCCC=CCCC[C@@](C)(C(=O)N[C@@H](Cc2ccc(O)cc2)C(=O)N[C@@H](Cc2ccc(O)cc2)C(=O)N[C@@H](C)C(N)=O)NC(=O)[C@H](CC(N)=O)NC(=O)[C@H](Cc2ccccc2)NC(=O)[C@H](C)NC(=O)[C@H](CC(=O)O)NC(=O)CNC(=O)[C@H]([C@@H](C)CC)NC1=O)[C@@H](C)CC` [compound 1730] (Ac-ILIAAALR[R8]IGDAFN[S5]YYA-NH2; staple 9-16), the inhibition constant Ki turned out to be 10.2 nM.

As to `CC[C@H](C)[C@H](NC(C)=O)C(=O)N[C@@H](Cc1ccccc1)C(=O)N[C@H](C(=O)N[C@@H](C)C(=O)N[C@@H](C)C(=O)N[C@@H](C)C(=O)N[C@@H](CC(C)C)C(=O)N[C@@H](CCCNC(=N)N)C(=O)N[C@]1(C)CCCCCCC=CCCC[C@@](C)(C(=O)N[C@@H](Cc2ccc(O)cc2)C(=O)N[C@@H](Cc2ccc(O)cc2)C(=O)N[C@@H](C)C(N)=O)NC(=O)[C@H](CC(N)=O)NC(=O)[C@H](Cc2ccccc2)NC(=O)[C@H](C)NC(=O)[C@H](CC(=O)O)NC(=O)CNC(=O)[C@H]([C@@H](C)CC)NC1=O)[C@@H](C)CC` [compound 1731] (Ac-IFIAAALR[R8]IGDAFN[S5]YYA-NH2; staple 9-16), the inhibitory constant (Ki) is 10.2 nM.

For the molecule `CC[C@H](C)[C@H](NC(C)=O)C(=O)N[C@@H](Cc1ccc2ccccc2c1)C(=O)N[C@H](C(=O)N[C@@H](C)C(=O)N[C@@H](C)C(=O)N[C@@H](C)C(=O)N[C@@H](CC(C)C)C(=O)N[C@@H](CCCNC(=N)N)C(=O)N[C@]1(C)CCCCCCC=CCCC[C@@](C)(C(=O)N[C@@H](Cc2ccc(O)cc2)C(=O)N[C@@H](Cc2ccc(O)cc2)C(=O)N[C@@H](C)C(N)=O)NC(=O)[C@H](CC(N)=O)NC(=O)[C@H](Cc2ccccc2)NC(=O)[C@H](C)NC(=O)[C@H](CC(=O)O)NC(=O)CNC(=O)[C@H]([C@@H](C)CC)NC1=O)[C@@H](C)CC` [compound 1732] (Ac-I[2Nal]IAAALR[R8]IGDAFN[S5]YYA-NH2; staple 9-16), the Ki was 13.7 nM.

In the case of `CC[C@H](C)[C@H](NC(C)=O)C(=O)N[C@@H](Cc1c[nH]c2ccccc12)C(=O)N[C@H](C(=O)N[C@@H](CO)C(=O)N[C@@H](C)C(=O)N[C@@H](C)C(=O)N[C@@H](CC(C)C)C(=O)N[C@@H](CCCNC(=N)N)C(=O)N[C@]1(C)CCCCCCC=CCCC[C@@](C)(C(=O)N[C@@H](Cc2ccc(O)cc2)C(=O)N[C@@H](Cc2ccc(O)cc2)C(=O)N[C@@H](C)C(N)=O)NC(=O)[C@H](CC(N)=O)NC(=O)[C@H](Cc2ccccc2)NC(=O)[C@H](C)NC(=O)[C@H](CC(=O)O)NC(=O)CNC(=O)[C@H]([C@@H](C)CC)NC1=O)[C@@H](C)CC` [compound 1733] (Ac-IWISAALR[R8]IGDAFN[S5]YYA-NH2; staple 9-16), the Ki came out at 3.6 nM.

Consider `CC[C@H](C)[C@H](NC(C)=O)C(=O)N[C@@H](Cc1c[nH]c2ccccc12)C(=O)N[C@H](C(=O)N[C@@H](CC(C)C)C(=O)N[C@@H](C)C(=O)N[C@@H](C)C(=O)N[C@@H](CC(C)C)C(=O)N[C@@H](CCCNC(=N)N)C(=O)N[C@]1(C)CCCCCCC=CCCC[C@@](C)(C(=O)N[C@@H](Cc2ccc(O)cc2)C(=O)N[C@@H](Cc2ccc(O)cc2)C(=O)N[C@@H](C)C(N)=O)NC(=O)[C@H](CC(N)=O)NC(=O)[C@H](Cc2ccccc2)NC(=O)[C@H](C)NC(=O)[C@H](CC(=O)O)NC(=O)CNC(=O)[C@H]([C@@H](C)CC)NC1=O)[C@@H](C)CC` [compound 1734] (Ac-IWILAALR[R8]IGDAFN[S5]YYA-NH2; staple 9-16), for which the inhibition constant Ki was 19.7 nM.

Take `CC[C@H](C)[C@H](NC(C)=O)C(=O)N[C@@H](Cc1c[nH]c2ccccc12)C(=O)N[C@H](C(=O)N[C@@H](C)C(=O)N[C@@H](CC(C)C)C(=O)N[C@@H](C)C(=O)N[C@@H](CC(C)C)C(=O)N[C@@H](CCCNC(=N)N)C(=O)N[C@]1(C)CCCCCCC=CCCC[C@@](C)(C(=O)N[C@@H](Cc2ccc(O)cc2)C(=O)N[C@@H](Cc2ccc(O)cc2)C(=O)N[C@@H](C)C(N)=O)NC(=O)[C@H](CC(N)=O)NC(=O)[C@H](Cc2ccccc2)NC(=O)[C@H](C)NC(=O)[C@H](CC(=O)O)NC(=O)CNC(=O)[C@H]([C@@H](C)CC)NC1=O)[C@@H](C)CC` [compound 1736] (Ac-IWIALALR[R8]IGDAFN[S5]YYA-NH2; staple 9-16): the Ki stood at 11.6 nM.

In general, Ki refers to a dissociation constant, usually derived from enzyme kinetics or from competition with a known ligand.
